Test system: SMCs in relation to ECs
Experiment: activity ratio: efficiency towards SMCs / efficiency towards ECs
Assay type: cell-based
Details: activity ratio class; order in Table 1 follows the calculated values
Experimental: For determination of vascular SMC proliferation, 0.5×10^4 viable rat aortic SMCs per well were seeded in SMC growth medium (DMEM/F12 medium with 20% serum, 30 μg/mL Gentamicin and 15 ng/mL Amphotericin) in 96-well plates. 24 h later, the medium was removed, the cells were washed once with SMC starvation medium (DMEM/F12 medium with 0.1% serum, 0.2% BSA, 30 μg/mL Gentamicin and 15 ng/mL Amphotericin) and incubated in starvation medium for further 24 h.
The quiescent cells were then pretreated for 30 min with the test compounds and induced to proliferate with 20 ng/mL platelet-derived growth factor (PDGF). Unstimulated cells were utilized for normalization and estimation of the basal level of proliferation. The final concentration of the solvent vehicle, dimethyl sulfoxide (DMSO), was the same (0.1%) in all wells. 48 h later, the SMC proliferation was quantified by resazurin dye conversion for 2 h as previously described (H. Joa et al., J. Nat. Prod. 74(6), 1513-6 (2011)).
For determination of endothelial cell proliferation, 0.5×10^4 HUVECtert immortalized human umbilical vein endothelial cells (H. B. Schiller et al., Mol. Biol. Cell. 20(3), 745-756 (2009)) were seeded in 96-well plates for 24 h in HUVEC Complete Medium (EBM™ growth medium supplemented with 10% fetal bovine serum, EBM™ SingleQuots (Lonza, Basel, Switzerland), 100 U/mL benzylpenicillin, 100 μg/mL streptomycin, and 1% amphotericin). Afterwards, the medium was exchanged with fresh HUVEC Complete Medium and cells were treated with the indicated compounds for 48 h. After the end of the incubation period, the medium was removed, the cells were washed once with 200 μL/well PBS, and treated with 150 μL HUVEC Complete Medium containing 10 μg/mL resazurin. 2 h later, the fluorescence was measured at a wavelength of 580 nm, with excitation wavelength 535 nm in a 96-well plate reader (Tecan GENios Pro; Tecan Group Ltd., Mannedorf, Switzerland).
In every case, the percentage of viable cells was subtracted from 1, in order to obtain a measure of efficiency of the test compounds towards each particular type of cells, and subsequently, the efficiency quotient towards SMCs and ECs was calculated and taken as the “activity ratio” and thus as a measure of selective efficiency of each test compound towards SMCs in relation to ECs. For example, the synthetic Leoligin with the bio ID 2418 prepared in Comparative Example 27 as compound 10-22 gave the following results:
Due to the usual fluctuations in determining surviving cells, which amount to approximately ±10%, and due to the relatively strong resulting fluctuations in calculating quotients—especially if the inhibitory effect of said novel compounds towards ECs is very poor—said threshold value of 1.50 for the activity ratio, as already mentioned above, was introduced.
In the following, a table listing every compound prepared in examples and comparative Examples for which an activity ratio (a.r.) of >1.0 was determined, is given.

In the case of `COc1ccc([C@H]2OC[C@H](Cc3cccc4ccccc34)[C@@H]2CO)cc1OC` [Example 3, ((2S,3R,4R)-2-(3,4-dimethoxyphenyl)-4-(naphthalen-1-ylmethyl)tetrahydro-furan-3-yl)methanol], the a.r. code was “AA (a.r. ≧ 2.0)”.
For `COc1ccc([C@H]2OC[C@H](Cc3ccc(C(F)(F)F)cc3)[C@@H]2CO)cc1OC` [Example 4, ((2S,3R,4R)-2-(3,4-dimethoxyphenyl)-4-(4-(trifluoromethyl)benzyl)tetrahydro-furan-3-yl)methanol], the a.r. code was “A (a.r. ≧ 1.50)”.
For `CCCCc1ccc(C[C@H]2CO[C@H](c3ccc(OC)c(OC)c3)[C@H]2CO)cc1` [Example 5, ((2S,3R,4R)-4-(4-butylbenzyl)-2-(3,4-dimethoxyphenyl)tetrahydrofuran-3-yl)-methanol], the a.r. code was “AA (a.r. ≧ 2.0)”.
With `COc1ccc([C@H]2OC[C@H](Cc3ccc(C(C)(F)F)cc3)[C@@H]2CO)cc1OC` [Example 6, ((2S,3R,4R)-4-(4-(1,1-difluoroethyl)benzyl)-2-(3,4-dimethoxyphenyl)tetrahydro-furan-3-yl)methanol] the a.r. code was “AA (a.r. ≧ 2.0)”.
In the case of `COc1cc([C@H]2OC[C@H](Cc3ccccc3)[C@@H]2CO)cc(OC)c1OC` [Example 7, ((2S,3R,4R)-4-benzyl-2-(3,4,5-trimethoxyphenyl)tetrahydrofuran-3-yl)methanol], the a.r. code was “AAA (a.r. ≧ 5.0)”.
With `COc1cc([C@H]2OC[C@H](Cc3ccc(C(F)(F)F)cc3)[C@@H]2CO)cc(OC)c1OC` [Example 8, ((2S,3R,4R)-4-(4-(trifluoromethyl)benzyl)-2-(3,4,5-trimethoxyphenyl)tetrahydro-furan-3-yl)methanol] the a.r. code was “AAA (a.r. ≧ 5.0)”.
`COc1cc([C@H]2OC[C@H](Cc3ccc(-c4ccccc4)cc3)[C@@H]2CO)cc(OC)c1OC` [Example 9, ((2S,3R,4R)-4-([1,1′-biphenyl]-4-ylmethyl)-2-(3,4,5-trimethoxyphenyl)-tetrahydrofuran-3-yl)methanol] was tested, and the a.r. code was “AA (a.r. ≧ 2.0)”.
In the case of `C/C=C(/C)C(=O)OC[C@H]1[C@@H](Cc2ccc(C(C)(C)C)cc2)CO[C@@H]1c1ccc(OC)c(OC)c1` [Example 10, (Z)-((2S,3R,4R)-4-(4-(tert-butyl)benzyl)-2-(3,4-dimethoxyphenyl)tetrahydro-furan-3-yl)methyl 2-methylbut-2-enoate], the a.r. code was “AA (a.r. ≧ 2.0)”.
In the case of `C/C=C(/C)C(=O)OC[C@H]1[C@@H](Cc2ccc(C(=O)OCC)cc2)CO[C@@H]1c1ccc(OC)c(OC)c1` [Example 11, ethyl 4-(((3R,4R,5S)-5-(3,4-dimethoxyphenyl)-4-((((Z)-2-methylbut-2-enoyl)-oxy)methyl)tetrahydrofuran-3-yl)methyl)benzoate], the a.r. code was “A (a.r. ≧ 1.50)”.
With `C/C=C(/C)C(=O)OC[C@H]1[C@@H](Cc2ccccn2)CO[C@@H]1c1ccc(OC)c(OC)c1` [Example 12, (Z)-((2S,3R,4R)-2-(3,4-dimethoxyphenyl)-4-(pyridin-2-ylmethyl)tetrahydro-furan-3-yl)methyl 2-methylbut-2-enoate] the a.r. code was “AAA (a.r. ≧ 5.0)”.
`C/C=C(/C)C(=O)OC[C@H]1[C@@H](Cc2ccc(CCCC)cc2)CO[C@@H]1c1ccc(OC)c(OC)c1` [Example 13, (Z)-((2S,3R,4R)-4-(4-butylbenzyl)-2-(3,4-dimethoxyphenyl)tetrahydrofuran-3-yl)methyl 2-methylbut-2-enoate] was tested, and the a.r. code was “AAA (a.r. ≧ 5.0)”.
`C/C=C(/C)C(=O)OC[C@H]1[C@@H](Cc2ccc(C(C)(F)F)cc2)CO[C@@H]1c1ccc(OC)c(OC)c1` [Example 14, (Z)-((2S,3R,4R)-4-(4-(1,1-difluoroethyl)benzyl)-2-(3,4-dimethoxyphenyl)tetra-hydrofuran-3-yl)methyl 2-methylbut-2-enoate] was tested, and the a.r. code was “A (a.r. ≧ 1.50)”.
`C/C=C(/C)C(=O)OC[C@H]1[C@@H](Cc2ccc(C(F)(F)F)cc2)CO[C@@H]1c1ccc(F)cc1` [Example 15, (Z)-((2S,3R,4R)-2-(4-fluorophenyl)-4-(4-(trifluoromethyl)benzyl)tetrahydro-furan-3-yl)methyl 2-methylbut-2-enoate] was tested, and the a.r. code was “AAA (a.r. ≧ 5.0)”.
For `C/C=C(/C)C(=O)OC[C@H]1[C@@H](Cc2ccc(C(F)(F)F)cc2)CO[C@@H]1c1ccccc1` [Example 16, (Z)-((2S,3R,4R)-2-phenyl-4-(4-(trifluoromethyl)benzyl)tetrahydrofuran-3-yl)-methyl 2-methylbut-2-enoate], the a.r. code was “AAA (a.r. ≧ 5.0)”.
In the case of `C/C=C(/C)C(=O)OC[C@H]1[C@@H](Cc2ccc(F)cc2)CO[C@@H]1c1ccc(F)cc1` [Example 17, (Z)-((2S,3R,4R)-4-(4-fluorobenzyl)-2-(4-fluorophenyl)tetrahydrofuran-3-yl)-methyl 2-methylbut-2-enoate], the a.r. code was “AAA (a.r. ≧ 5.0)”.
In the case of `C/C=C(/C)C(=O)OC[C@H]1[C@@H](Cc2ccc(C(C)(C)C)cc2)CO[C@@H]1c1ccc(F)cc1` [Example 18, (Z)-((2S,3R,4R)-4-(4-(tert-butyl)benzyl)-2-(4-fluorophenyl)tetrahydrofuran-3-yl)methyl 2-methylbut-2-enoate], the a.r. code was “AAA (a.r. ≧ 5.0)”.
With `COc1ccc(C[C@H]2CO[C@H](c3cc(OC)c(OC)c(OC)c3)[C@H]2COC(=O)C=C(C)C)cc1OC` [Example 19, ((2S,3R,4R)-4-(3,4-dimethoxybenzyl)-2-(3,4,5-trimethoxyphenyl)tetrahydro-furan-3-yl)methyl 3-methylbut-2-enoate] the a.r. code was “AAA (a.r. ≧ 5.0)”.
In the case of `C/C=C(/C)C(=O)OC[C@H]1[C@@H](Cc2ccc(C(C)(C)C)cc2)CO[C@@H]1c1cc(OC)c(OC)c(OC)c1` [Example 20, (Z)-((2S,3R,4R)-4-(4-(tert-butyl)benzyl)-2-(3,4,5-trimethoxyphenyl)tetrahydro-furan-3-yl)methyl 2-methylbut-2-enoate], the a.r. code was “AA (a.r. ≧ 2.0)”.
For `C/C=C(/C)C(=O)OC[C@H]1[C@@H](Cc2ccc(C(C)=O)cc2)CO[C@@H]1c1cc(OC)c(OC)c(OC)c1` [Example 21, (Z)-((2S,3R,4R)-4-(4-acetylbenzyl)-2-(3,4,5-trimethoxyphenyl)tetrahydrofuran-3-yl)methyl 2-methylbut-2-enoate], the a.r. code was “AA (a.r. ≧ 2.0)”.
For `C/C=C(/C)C(=O)OC[C@H]1[C@@H](Cc2ccc(C(=O)OCC)cc2)CO[C@@H]1c1cc(OC)c(OC)c(OC)c1` [Example 22, ethyl 4-(((3R,4R,5S)-4-((((Z)-2-methylbut-2-enoyl)oxy)methyl)-5-(3,4,5-trimethoxyphenyl)tetrahydrofuran-3-yl)methyl)benzoate], the a.r. code was “AA (a.r. ≧ 2.0)”.
For `C/C=C/C(=O)OC[C@H]1[C@@H](Cc2ccc(OC)c(OC)c2)CO[C@@H]1c1ccc(OC)c(OC)c1` [Example 23, (E)-((2S,3R,4R)-4-(3,4-dimethoxybenzyl)-2-(3,4-dimethoxyphenyl)tetrahydro-furan-3-yl)methyl but-2-enoate], the a.r. code was “AA (a.r. ≧ 2.0)”.
In the case of `COc1ccc(C[C@H]2CO[C@H](c3ccc(OC)c(OC)c3)[C@H]2COC(=O)/C=C/c2ccccc2)cc1OC` [Example 24, ((2S,3R,4R)-4-(3,4-dimethoxybenzyl)-2-(3,4-dimethoxyphenyl)tetrahydrofuran-3-yl)methyl cinnamate], the a.r. code was “AA (a.r. ≧ 2.0)”.
In the case of `COc1ccc(C[C@H]2CO[C@H](c3ccc(OC)c(OC)c3)[C@H]2COC(=O)C=C(C)C)cc1OC` [Example 25, ((2S,3R,4R)-4-(3,4-dimethoxybenzyl)-2-(3,4-dimethoxyphenyl)tetrahydrofuran-3-yl)methyl 3-methylbut-2-enoate], the a.r. code was “AA (a.r. ≧ 2.0)”.
`COc1ccc(C[C@H]2CO[C@H](c3ccccc3)[C@H]2COC(=O)C2CCCC2)cc1OC` [Example 26, ((2S,3R,4R)-4-(3,4-dimethoxybenzyl)-2-phenyltetrahydrofuran-3-yl)methyl cyclopentanecarboxylate] was tested, and the a.r. code was “A (a.r. ≧ 1.50)”.
In the case of `COc1ccc(C[C@H]2CO[C@H](c3ccc(OC)c(OC)c3)[C@H]2COC(=O)CC23CC4CC(CC(C4)C2)C3)cc1OC` [Example 27, ((2S,3R,4R)-4-(3,4-dimethoxybenzyl)-2-(3,4-dimethoxyphenyl)tetrahydrofuran-3-yl) methyl 2-(adamantan-1-yl)acetate], the a.r. code was “AA (a.r. ≧ 2.0)”.
For `COc1ccc(C[C@H]2CO[C@H](c3ccccc3)[C@H]2COC(=O)C2CCCCC2)cc1OC` [Example 28, ((2S,3R,4R)-4-(3,4-dimethoxybenzyl)-2-phenyltetrahydrofuran-3-yl)methyl cyclohexanecarboxylate], the a.r. code was “A (a.r. ≧ 1.50)”.

— patent publication US20170157301A1, “LEOLIGIN DERIVATIVES AS SMOOTH MUSCLE CELL PROLIFERATION INHIBITORS” (TECHNISCHE UNIVERSITAET WIEN, priority 2014, published 2017)
